Consider 15 compounds from patent US12624044B2, “SMARCA degraders and uses thereof” (Kymera Therapeutics, Inc., priority 2019, dated 2026).

Holding throughout (type): cell-based
Assay [1] concerns the target T1, SMARCA2 (Homo sapiens, UniProt P51531). The assay is described as follows: MSD SMARCA2 degradation in A549 cell line. As to conditions: 24 h; for Dmax: A549, A549 cells; for DC50: A549 cells, read-out: SMARCA2 MSD A549 degradation 24 h: Average external-Abs DC50. Summed up:
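A549 cells treated 24 h with compound at final 0.152-1000 nM (3-fold series, DMSO control). Lysates analyzed by MSD immunoassay using anti-SMARCA2/BRM detection and SULFO-TAG secondary antibodies; maximal degradation (Dmax %) reported as letter bins.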

Assay [2] deals with T1, SMARCA2. Kind of assay: SMARCA2 Western blot MV4-11 degradation. The conditions noted are these: 24 h; for Dmax: MV4-11, MV4-11 cells, read-out: SMARCA2 WB MV411 degradation 24 h: Average Dmax %; for DC50: MV4-11 cells, read-out: SMARCA2 WB MV411 degradation 24 h: Average external-Abs DC50. The method, then:
Cells were seeded into 6-well plates (MV4-11: 4×10^6 cells/well/1 ml) and 1 ml of 2× compound solution was added into the well to make the final concentration and the plates were mixed well and incubated for 24 hours (No cytotoxicity was observed). The cell were collected with media and spun at 3000 rpm for 5 minutes. The supernatant was aspirated and the well and the cells were washed with cold PBS once and combined for centrifugation again; the supernatant aspirated again. 200 ul pre-chilled RIPAlysis buffer (Boston BioProducts BP-115D) with protease/phosphatase inhibitor (Roche 05892791001/Roche 04906837001) was directly added into the tube to lyze the cells for 20 minutes on ice. The cell lysate were collected into EP tubes and spun at 13000 rpm for 20 minutes and 72 ul supernatant was transferred to a fresh EP tube containing 18 ul of 5× loading buffer (Beyotime Bio P0015) to make the loading samples. The samples were heated to 100° C. for 10 minutes and cooled to RT and microcentrifuged. 20 ul of samples were loaded onto SDS-PAGE gel (Novex, WG1402BOX) and the gel was run at 80 V for 20 minutes and 120 V for 1.5 hours. The samples were electrotransfer to a NC membrane using wet-transfer method with 250 mA for 2.5 hours. The membrane was blocked with LICOR blocking buffer (LI-COR, 927-50000) for 1 hour. The membrane was washed three times with TBST (CST #9997S), 5 minutes each. Incubation was performed with primary antibody prepared in blocking buffer with 0.1% Tween-20 (Solarbio, P8220) at 4° C. overnight (Anti-SMARCA2/BRM antibody (ab15597) 1:500; Anti-BRG1 antibody [EPR3912] (ab108318) 1:1000; Rabbit anti-Baf180 antibody [EPR15860] (Abcam, ab196022) 1:1000; mouse anti-beta-Actin (8H10D10) (CST #3700) 1:10000). The membrane was washed three times with TBST, 5 minutes each. Incubation with secondary antibody was performed for 1 hour at RT (anti-rabbit IgG (Licor, 926-32211) 1:5000; anti-mouse IgG (LI-COR, 926-68070) 1:5000). The membrane was washed three times with TBST, 5 minutes each and lastly the LiCOR was read.
The letter codes for the percentage of SMARCA degradation after 24 hours (Dmax %) include: A (>90% degradation), B (>70-90% degradation), C (50-70% degradation), and D (<50% degradation).
Background: In western blotting, separated proteins are transferred to a membrane and probed.

A further assay concerns the target T2, SMARCA4 (Homo sapiens, UniProt P51532).
T2 construct: SMARCA2 and SMARCA4 protein degradation in MV4-11 cells; endogenous in cells; host or cells: MV4-11
The assay is described as follows: SMARCA4 Western blot MV4-11 degradation. The conditions noted are these: 24 h; for Dmax: MV4-11, MV4-11 cells, read-out: SMARCA4 WB MV411 degradation 24 h: Average Dmax %; for DC50: MV4-11 cells, read-out: SMARCA4 WB MV411 degradation 24 h: Average external-Abs DC50. In outline:
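MV4-11 cells treated with compound for 24 h, lysed in RIPA with protease/phosphatase inhibitors, and SMARCA2 and SMARCA4 (BRG1) levels assessed by Western blot with β-actin loading control and LI-COR fluorescent read-out. Maximal degradation (Dmax %) after 24 h binned into letter codes.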

T2 sequence (P51532 whole entry): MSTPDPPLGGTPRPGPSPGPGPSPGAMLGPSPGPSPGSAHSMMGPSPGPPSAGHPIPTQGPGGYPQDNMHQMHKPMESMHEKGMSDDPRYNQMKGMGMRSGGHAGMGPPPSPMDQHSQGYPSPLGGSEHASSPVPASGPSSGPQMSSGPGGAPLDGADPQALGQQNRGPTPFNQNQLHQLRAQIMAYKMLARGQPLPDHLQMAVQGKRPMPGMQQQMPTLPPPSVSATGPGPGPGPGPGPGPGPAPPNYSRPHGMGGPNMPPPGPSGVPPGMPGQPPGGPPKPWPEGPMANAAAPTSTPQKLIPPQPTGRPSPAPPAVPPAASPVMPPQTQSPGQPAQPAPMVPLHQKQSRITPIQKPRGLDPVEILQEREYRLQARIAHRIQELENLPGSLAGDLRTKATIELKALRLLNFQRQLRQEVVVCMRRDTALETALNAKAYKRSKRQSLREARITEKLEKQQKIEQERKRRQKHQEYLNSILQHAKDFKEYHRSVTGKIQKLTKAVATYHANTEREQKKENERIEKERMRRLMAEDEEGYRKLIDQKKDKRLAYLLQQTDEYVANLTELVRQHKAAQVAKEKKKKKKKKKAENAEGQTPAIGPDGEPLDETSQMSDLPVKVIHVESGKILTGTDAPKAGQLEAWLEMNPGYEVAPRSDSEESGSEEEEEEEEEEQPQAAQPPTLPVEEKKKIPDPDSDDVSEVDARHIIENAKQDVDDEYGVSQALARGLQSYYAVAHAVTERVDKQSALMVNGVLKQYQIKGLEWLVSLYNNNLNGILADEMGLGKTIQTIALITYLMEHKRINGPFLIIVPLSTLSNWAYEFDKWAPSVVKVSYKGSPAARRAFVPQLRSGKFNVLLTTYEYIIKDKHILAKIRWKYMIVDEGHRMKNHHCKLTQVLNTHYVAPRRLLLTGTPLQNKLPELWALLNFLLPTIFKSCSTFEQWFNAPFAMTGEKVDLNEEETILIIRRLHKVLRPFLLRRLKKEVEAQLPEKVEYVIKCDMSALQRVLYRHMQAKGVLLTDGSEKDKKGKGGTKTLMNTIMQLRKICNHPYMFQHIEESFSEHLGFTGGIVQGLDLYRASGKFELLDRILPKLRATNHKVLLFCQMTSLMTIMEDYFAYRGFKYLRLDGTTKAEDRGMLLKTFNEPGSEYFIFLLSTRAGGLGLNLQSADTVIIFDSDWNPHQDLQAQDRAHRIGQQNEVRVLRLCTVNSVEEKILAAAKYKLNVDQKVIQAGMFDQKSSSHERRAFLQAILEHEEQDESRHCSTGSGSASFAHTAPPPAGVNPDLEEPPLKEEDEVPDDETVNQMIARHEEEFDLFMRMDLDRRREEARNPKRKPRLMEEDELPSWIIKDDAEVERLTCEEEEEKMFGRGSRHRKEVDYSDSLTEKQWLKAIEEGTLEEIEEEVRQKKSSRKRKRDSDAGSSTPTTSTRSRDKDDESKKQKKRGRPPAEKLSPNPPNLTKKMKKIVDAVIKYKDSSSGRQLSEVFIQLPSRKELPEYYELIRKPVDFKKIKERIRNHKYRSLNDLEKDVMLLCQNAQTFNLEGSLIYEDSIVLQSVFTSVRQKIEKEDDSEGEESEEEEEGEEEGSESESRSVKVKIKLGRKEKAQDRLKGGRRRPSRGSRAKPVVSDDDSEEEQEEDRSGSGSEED
T1 sequence (P51531 whole entry): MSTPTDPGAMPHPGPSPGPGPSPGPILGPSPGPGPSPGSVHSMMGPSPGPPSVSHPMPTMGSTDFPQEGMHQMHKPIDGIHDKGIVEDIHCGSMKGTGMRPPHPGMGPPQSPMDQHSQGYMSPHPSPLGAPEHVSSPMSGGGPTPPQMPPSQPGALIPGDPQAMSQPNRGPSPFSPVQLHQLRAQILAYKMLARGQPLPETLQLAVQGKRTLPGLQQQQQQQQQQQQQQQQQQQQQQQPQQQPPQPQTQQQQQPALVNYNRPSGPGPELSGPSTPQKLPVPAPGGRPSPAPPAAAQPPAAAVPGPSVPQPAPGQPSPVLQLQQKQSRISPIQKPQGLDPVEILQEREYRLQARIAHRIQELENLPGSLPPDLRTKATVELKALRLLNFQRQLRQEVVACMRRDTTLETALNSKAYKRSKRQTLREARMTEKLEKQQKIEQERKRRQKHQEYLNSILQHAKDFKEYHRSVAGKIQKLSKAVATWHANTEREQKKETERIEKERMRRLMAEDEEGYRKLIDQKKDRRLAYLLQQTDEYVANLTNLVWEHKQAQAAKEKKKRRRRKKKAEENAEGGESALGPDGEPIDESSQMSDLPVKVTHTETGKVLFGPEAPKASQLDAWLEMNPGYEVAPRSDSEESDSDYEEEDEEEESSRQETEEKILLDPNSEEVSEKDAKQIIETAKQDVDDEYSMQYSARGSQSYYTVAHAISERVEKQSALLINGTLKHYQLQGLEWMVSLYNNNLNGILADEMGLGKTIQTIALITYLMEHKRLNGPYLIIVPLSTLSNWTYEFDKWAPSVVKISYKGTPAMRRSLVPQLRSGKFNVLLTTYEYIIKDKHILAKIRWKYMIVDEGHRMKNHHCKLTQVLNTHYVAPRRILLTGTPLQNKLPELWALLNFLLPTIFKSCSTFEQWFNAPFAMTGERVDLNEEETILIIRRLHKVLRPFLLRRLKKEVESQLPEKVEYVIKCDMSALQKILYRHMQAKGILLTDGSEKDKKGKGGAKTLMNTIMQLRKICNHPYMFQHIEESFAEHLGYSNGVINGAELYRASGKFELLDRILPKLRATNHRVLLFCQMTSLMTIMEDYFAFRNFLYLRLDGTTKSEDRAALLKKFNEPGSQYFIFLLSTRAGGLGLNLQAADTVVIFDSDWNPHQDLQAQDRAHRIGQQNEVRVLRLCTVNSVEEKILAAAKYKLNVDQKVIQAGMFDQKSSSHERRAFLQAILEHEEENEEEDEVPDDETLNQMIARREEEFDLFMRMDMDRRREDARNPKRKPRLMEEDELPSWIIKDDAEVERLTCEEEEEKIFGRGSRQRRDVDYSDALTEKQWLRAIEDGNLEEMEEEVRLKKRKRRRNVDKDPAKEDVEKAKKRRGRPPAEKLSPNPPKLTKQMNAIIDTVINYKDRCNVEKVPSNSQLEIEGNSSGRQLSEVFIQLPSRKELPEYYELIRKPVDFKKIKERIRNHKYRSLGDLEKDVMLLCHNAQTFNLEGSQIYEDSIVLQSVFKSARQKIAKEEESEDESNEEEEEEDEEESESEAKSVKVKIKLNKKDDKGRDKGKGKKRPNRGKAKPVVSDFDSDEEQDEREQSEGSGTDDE

Usually Dmax stands for the greatest extent of degradation seen. Broadly, the DC50 is the concentration at which degradation of the target reaches its halfway point. As for `Cc1ncsc1-c1ccc(CNC(=O)[C@@H]2C[C@@H](O)CN2C(=O)[C@@H](NC(=O)[C@H]2C[C@@H](N3CCC(c4cnc(N5C6CCC5CN(c5cc(-c7ccccc7O)nnc5N)C6)nc4)CC3)C2)C(C)(C)C)cc1` [I-349], the Dmax at SMARCA2 [1] is more than 90%; on SMARCA2 [2], 70 to 90%; on SMARCA4 it was less than 50%. Besides, the DC50 at SMARCA2 [1] is 100 to 500 nM; at SMARCA2 [2] it was less than 100 nM; at SMARCA4, 501 to 1000 nM.

In the case of `Cc1ncsc1-c1ccc(CNC(=O)[C@@H]2C[C@@H](O)CN2C(=O)[C@@H](NC(=O)CN2CCN(C3CCC(c4cnc(N5C6CCC5CN(c5cc(-c7ccccc7O)nnc5N)C6)nc4)CC3)CC2)C(C)(C)C)cc1` (stereo partly drawn) [I-354, (2S,4R)-1-((2S)-2-(2-(4-(4-(2-(3-(3-amino-6-(2-hydroxyphenyl)pyridazin-4-yl)-3,8-diazabicyclo[3.2.1]octan-8-yl)pyrimidin-5-yl)cyclohexyl)piperazin-1-yl)acetamido)-3,3-dimethylbutanoyl)-4-hydroxy-N-(4-(4-methylthiazol-5-yl)benzyl)pyrrolidine-2-carboxamide], the greatest degradation seen (Dmax) on SMARCA2 [1], at SMARCA2 [2] and on SMARCA4 was more than 90% each time. Besides, the DC50 on SMARCA2 [1], on SMARCA2 [2] and at SMARCA4 was less than 100 nM each time.

Regarding `Cc1ncsc1-c1ccc(CNC(=O)[C@@H]2C[C@@H](O)CN2C(=O)[C@@H](NC(=O)[C@H]2CC[C@H](Cc3cnc(N4C5CCC4CN(c4cc(-c6ccccc6O)nnc4N)C5)nc3)CC2)C(C)(C)C)cc1` [I-366, (2S,4R)-1-((2S)-2-((1r,4S)-4-((2-(3-(3-amino-6-(2-hydroxyphenyl)pyridazin-4-yl)-3,8-diazabicyclo[3.2.1]octan-8-yl)pyrimidin-5-yl)methyl)cyclohexane-1-carboxamido)-3,3-dimethylbutanoyl)-4-hydroxy-N-(4-(4-methylthiazol-5-yl)benzyl) pyrrolidine-2-carboxamide], the Dmax on SMARCA2 [1], on SMARCA2 [2] and at SMARCA4 was more than 90% in each case. The DC50 at SMARCA2 [1], on SMARCA2 [2] and on SMARCA4 was less than 100 nM throughout.

Consider `Cc1ncsc1-c1ccc(CNC(=O)[C@@H]2C[C@@H](O)CN2C(=O)[C@@H](NC(=O)[C@H]2CC3(C2)C[C@H](c2cnc(N4C5CCC4CN(c4cc(-c6ccccc6O)nnc4N)C5)nc2)C3)C(C)(C)C)cc1` (stereo partly drawn) [I-368], for which the Dmax at SMARCA2 [1], on SMARCA2 [2] and at SMARCA4 was more than 90% each time. Also, the DC50 on SMARCA2 [1], at SMARCA2 [2] and at SMARCA4 was less than 100 nM each time.

As to `Cc1ncsc1-c1ccc(CNC(=O)[C@@H]2C[C@@H](O)CN2C(=O)[C@@H](NC(=O)[C@H]2C[C@@]3(C2)C[C@H](c2cnc(N4C5CCC4CN(c4cc(-c6ccccc6O)nnc4N)C5)nc2)C3)C(C)(C)C)cc1` (stereo partly drawn) [I-369], the DC50 at SMARCA2 [1], on SMARCA2 [2] and at SMARCA4 was less than 100 nM in each case.

`Cc1ncsc1-c1ccc(CNC(=O)[C@@H]2C[C@@H](O)CN2C(=O)[C@@H](NC(=O)[C@H]2CC[C@H](CN3CCC(c4cnc(N5C6CCC5CN(c5cc(-c7ccccc7O)nnc5N)C6)nc4)CC3)CC2)C(C)(C)C)cc1` [I-375]: the results for the Dmax on SMARCA2 [1], on SMARCA2 [2] and at SMARCA4 were more than 90%, more than 90% and 50 to 70%, respectively. The DC50 on SMARCA2 [1] is 100 to 500 nM; at SMARCA2 [2], less than 100 nM; at SMARCA4, 501 to 1000 nM.

Consider `Cc1ncsc1-c1ccc(CNC(=O)[C@@H]2C[C@@H](O)CN2C(=O)[C@@H](NC(=O)[C@H]2CC[C@H](CCCCCN3CCC(Cn4cc(-c5cc(-c6ccccc6O)nnc5N)cn4)CC3)CC2)C(C)(C)C)cc1` [I-378], for which the Dmax at SMARCA2 [1], on SMARCA2 [2] and at SMARCA4 was more than 90% each time. In addition, the DC50 at SMARCA2 [1] was 100 to 500 nM; at SMARCA2 [2], less than 100 nM; at SMARCA4, less than 100 nM.

As to `Cc1ncsc1-c1ccc(CNC(=O)[C@@H]2C[C@@H](O)CN2C(=O)[C@@H](NC(=O)[C@H]2CC[C@H](CCN3CCC(n4cc(-c5cc(-c6ccccc6O)nnc5N)cn4)CC3)CC2)C(C)(C)C)cc1` [I-399], the Dmax is more than 90% at SMARCA2 [1], more than 90% on SMARCA2 [2] and 50 to 70% on SMARCA4. Besides, the DC50 is less than 100 nM on SMARCA2 [1], less than 100 nM on SMARCA2 [2] and 100 to 500 nM on SMARCA4.

For `Cc1ncsc1-c1ccc(CNC(=O)[C@@H]2C[C@@H](O)CN2C(=O)[C@@H](NC(=O)[C@H]2CC[C@H](CCCN3CCC(n4cc(-c5cc(-c6ccccc6O)nnc5N)cn4)CC3)CC2)C(C)(C)C)cc1` [I-401], the Dmax is more than 90% at SMARCA2 [1], more than 90% at SMARCA2 [2] and 70 to 90% on SMARCA4. In addition, the 50% degradation concentration (DC50) was 100 to 500 nM at SMARCA2 [1], less than 100 nM on SMARCA2 [2] and 100 to 500 nM on SMARCA4.

`Cc1ncsc1-c1ccc(CNC(=O)[C@@H]2C[C@@H](O)CN2C(=O)[C@@H](NC(=O)[C@H]2CC[C@H](c3cnc(N4C5CCC4CN(c4cc(-c6ccccc6O)nnc4N)C5)nc3)CC2)C(C)(C)C)c(C(F)(F)F)c1` [I-404]: the values for the maximal degradation (Dmax) on SMARCA2 [1], on SMARCA2 [2] and at SMARCA4 were more than 90%, more than 90% and 70 to 90%, respectively. Besides, the DC50 at SMARCA2 [1] is 100 to 500 nM; at SMARCA2 [2], less than 100 nM; on SMARCA4, 100 to 500 nM.

`Cc1ncsc1-c1ccc(CNC(=O)[C@@H]2C[C@@H](O)CN2C(=O)[C@@H](NC(=O)[C@H]2CC[C@H](c3cnc(N4C5CCC4CN(c4cc(-c6ccccc6O)nnc4N)C5)nc3)CC2)C(C)(C)C)c(OC(F)(F)F)c1` [I-405]: the Dmax on SMARCA2 [1], at SMARCA2 [2] and on SMARCA4 was more than 90% each time. Moreover, the DC50 was less than 100 nM at SMARCA2 [1], less than 100 nM at SMARCA2 [2] and 100 to 500 nM on SMARCA4.

Take `Cc1ncsc1-c1ccc(CNC(=O)[C@@H]2C[C@@H](O)CN2C(=O)[C@@H](NC(=O)[C@@H]2CC=C(c3cnc(N4C5CCC4CN(c4cc(-c6ccccc6O)nnc4N)C5)nc3)CC2)C(C)(C)C)cc1` [I-406]: the Dmax was more than 90% on SMARCA2 [1], more than 90% at SMARCA2 [2] and 70 to 90% at SMARCA4. For the same compound, the DC50 at SMARCA2 [1], at SMARCA2 [2] and at SMARCA4 was less than 100 nM throughout.

`Cc1ncsc1-c1ccc(CNC(=O)[C@@H]2C[C@@H](O)CN2C(=O)[C@@H](NC(=O)[C@H]2CC=C(c3cnc(N4C5CCC4CN(c4cc(-c6ccccc6O)nnc4N)C5)nc3)CC2)C(C)(C)C)cc1` [I-407]: the Dmax on SMARCA2 [1], at SMARCA2 [2] and on SMARCA4 was more than 90% in each case. Besides, the DC50 at SMARCA2 [1] was 100 to 500 nM; on SMARCA2 [2] it was less than 100 nM; on SMARCA4, less than 100 nM.

Consider `CC(=O)O[C@@H]1C[C@@H](C(=O)NCc2ccc(-c3scnc3C)cc2)N(C(=O)[C@@H](NC(=O)[C@H]2CC[C@H](c3cnc(N4C5CCC4CN(c4cc(-c6ccccc6O)nnc4N)C5)nc3)CC2)C(C)(C)C)C1` [I-408], for which the greatest degradation seen (Dmax) on SMARCA2 [1], at SMARCA2 [2] and on SMARCA4 was more than 90% in each case. Also, the DC50 on SMARCA2 [1], at SMARCA2 [2] and at SMARCA4 was less than 100 nM each time.

Consider `Cc1ncsc1-c1ccc(CNC(=O)[C@@H]2C[C@@H](OC(=O)[C@H](C)N)CN2C(=O)[C@@H](NC(=O)[C@H]2CC[C@H](c3cnc(N4C5CCC4CN(c4cc(-c6ccccc6O)nnc4N)C5)nc3)CC2)C(C)(C)C)cc1` [I-409], for which the Dmax at SMARCA2 [1], on SMARCA2 [2] and at SMARCA4 was more than 90% each time. Also, the half-maximal degradation concentration (DC50) on SMARCA2 [1], on SMARCA2 [2] and on SMARCA4 was less than 100 nM each time.
